Results from patent US20130065883A1 (Centro Nacional de Investigaceiones Oncologicas (CNIO), priority 2010, published 2013).
Like-named read-outs stand apart in the source and are kept apart here.

What was measured:
[1] = tested on: H1299 cells overexpressing Pim1 (H1299Pim1); assay: BAD S112 phosphorylation inhibition assay (In Cell ELISA); assay type: cell-based; details: Homo sapiens, NCI-H1299, inhibition of Bad-phosphorylation, read-out: Cell assay BAD_P H1299 PIM1
[2] = Metabolic stability assay; assay type: in vitro ADME; details: percentage metabolic stability in human liver microsomes
Experimental: The metabolic stability assay was performed in Wuxi. 1 μM, 15 min. The kinase selectivity testing was performed in ProQinase GmbH, Germany.

[3] = tested on: tumor cell lines; assay: Combination assay (MTT in vitro cell proliferation, combination index); assay type: cell-based; details: for EC50: read-out: Pim Inh EC50
[4] = tested on: panel of 24 kinases; assay: Kinase selectivity testing (percentage inhibition of 24 kinases at 1 μM); assay type: biochemical; details: proquinase; for % inhibiton at 1 uM CK1 Alpha 1: CK1 Alpha 1, 1 uM; for % inhibiton at 1 uM FGFR1: FGFR1, 1 uM; for % inhibiton at 1 uM JAK2: JAK2, 1 uM; for % inhibiton at 1 uM MEK1: MEK1, 1 uM; for % inhibiton at 1 uM SGK1: SGK1, 1 uM

| EC50 [1] [nM] | Stability in HLM [2] [%] | % inhibiton at 1 uM B_RAF V600E ([4]; 1 uM) [%] | % inhibiton at 1 uM CK1 Alpha 1 [4] [%] | % inhibiton at 1 uM DYRK 1A ([4]; 1 uM) [%] | % inhibiton at 1 uM EGF_R ([4]; 1 uM) [%] | % inhibiton at 1 uM FAK ([4]; 1 uM) [%] | % inhibiton at 1 uM FGFR1 [4] [%] | % inhibiton at 1 uM IGF1_R ([4]; 1 uM) [%] | % inhibiton at 1 uM IKK BETA ([4]; 1 uM) [%] | % inhibiton at 1 uM INS_R ([4]; 1 uM) [%] | % inhibiton at 1 uM JAK2 [4] [%] | % inhibiton at 1 uM KIT ([4]; 1 uM) [%] | % inhibiton at 1 uM MEK1 [4] [%] | % inhibiton at 1 uM MET ([4]; 1 uM) [%] | % inhibiton at 1 uM PDGFR Alpha ([4]; 1 uM) [%] | % inhibiton at 1 uM SGK1 [4] [%] | SMILES | further results |
| --- | --- | --- | --- | --- | --- | --- | --- | --- | --- | --- | --- | --- | --- | --- | --- | --- | --- | --- |
| 599 | 93.95 | 7 | 6 | 30 | 18 | 28 | 32 | 26 | 17 | 16 | 15 | 34 | 0 | 19 | 23 | 7 | FC(F)(F)Oc1cccc(-n2nnc3cc(Cl)c(NCC4CCNCC4)nc32)c1 [2-54] | EC50 ([3]; Homo sapiens, NCI-H23, NCIH23, non small cell lung carcinoma): 5 µM; % inhibiton at 1 uM RPS5 KA1 ([4]; RPS5 KA1, 1 uM): 8% |
| 136 | 96.65 | 1 | 4 | 0 | 1 | 0 | 0 | 5 | 0 | 0 | 2 | 2 | 1 | 0 | 0 | 6 | COc1cc(NCC2CCNCC2)nc2c1nnn2-c1cccc(OC(F)(F)F)c1 [2-92] | Synergy ([3]; A549, combined with GDC-0941): +++ (0.1 < CI < 0.3 (+++)); Synergy ([3]; DU145, combined with Taxotere): ++ (0.3 < CI < 0.7 (++)); EC50 ([3]; HTC116, colon carcinoma): 10 µM; Synergy ([3]; HTC116, combined with PD-0325901): +++ (0.1 < CI < 0.3 (+++)); Synergy ([3]; HTC116, combined with lapatinib): +++ (0.1 < CI < 0.3 (+++)); EC50 ([3]; Homo sapiens, SK-MEL19, SKMel19, melanoma): 1 µM; Synergy ([3]; MV4:11, combined with lapatinib): ++ (0.3 < CI < 0.7 (++)); Synergy ([3]; MiaPaca-2, combined with Gemcitabine): + (0.7 < CI < 1.2 (+)); Synergy ([3]; NCIH1975, combined with GDC-0941): ++ (0.3 < CI < 0.7 (++)); Synergy ([3]; PC3, combined with GDC-0941): + (0.7 < CI < 1.2 (+)); Synergy ([3]; SKMel19, combined with GDC-0879): +++ (0.1 < CI < 0.3 (+++)); Synergy ([3]; SKMel19, combined with GDC-0941): ++ (0.3 < CI < 0.7 (++)); % inhibiton at 1 uM AKT2 ([4]; AKT2, 1 uM): 0%; % inhibiton at 1 uM CDK8 CYCC ([4]; CDK8 CYCC, 1 uM): 0%; % inhibiton at 1 uM CHK1 ([4]; CHK1, 1 uM): 0%; % inhibiton at 1 uM PAK1 ([4]; PAK1, 1 uM): 8%; % inhibiton at 1 uM PDK1 ([4]; PDK1, 1 uM): 0%; % inhibiton at 1 uM PLK1 ([4]; PLK1, 1 uM): 0%; % inhibiton at 1 uM SRC ([4]; SRC, 1 uM): 8% |
